According to the supplement of paper PMC11061612:

Key:
[1] = system: NCI-H1838 (Lung Adenocarcinoma); test: Bliss excess, mean over the matrix (fraction); higher = more synergy
Method in brief: (§1)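 Cell lines in DMEM/F12 or RPMI with 10% FBS were plated in 1536-well plates, held 24 hours at 37°C, 5% CO2, then given two-drug dose matrices for 72 hours (DMSO typically 0.2%). Viability was read by CellTiter-Glo 2.0 luminescence and scaled as inhibition from 0 (vehicle wells) to 1 (blank wells). Combination Emax is the second-highest inhibition in the matrix; Bliss excess is observed combination effect minus expected EA + EB − EA·EB, EA and EB being single-agent effects.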

[2] = system: HCC1937 (Breast Carcinoma); test: as above
Method in brief: as §1

[3] = system: NCI-H2122 (Lung Adenocarcinoma); test: as above
Method in brief: as §1

[4] = system: ALL-SIL (T-Lymphoblastic Leukemia); test: as above
Method in brief: as §1

[5] = system: CADO-ES1 (Ewing's Sarcoma); test: as above
Method in brief: as §1

[6] = system: G-401 (Other Solid Carcinomas); test: as above
Method in brief: as §1

[7] = system: EJM (Plasma Cell Myeloma); test: as above
Method in brief: as §1

[8] = system: SK-LU-1 (Lung Adenocarcinoma); test: as above
Method in brief: as §1

[9] = system: KOPN-8 (B-Lymphoblastic Leukemia); test: as above
Method in brief: as §1

[10] = system: NCI-H1092 (Small Cell Lung Carcinoma); test: as above
Method in brief: as §1

[11] = system: NCI-H650 (Lung Adenocarcinoma); test: as above
Method in brief: as §1

EW-1 (Ewing's Sarcoma) = test: as above
Method in brief: as §1

[12] = system: HCC2998 (Colorectal Carcinoma); test: as above
Method in brief: as §1

[13] = system: HCC1937 (Breast Carcinoma); test: combination Emax (second highest fraction inhibited in the dose matrix, 72 h); higher = more inhibition; extreme values may be limits of the assay
Method in brief: as §1

[14] = system: CADO-ES1 (Ewing's Sarcoma); test: as above
Method in brief: as §1

[15] = system: G-401 (Other Solid Carcinomas); test: as above
Method in brief: as §1

[16] = system: SK-LU-1 (Lung Adenocarcinoma); test: as above
Method in brief: as §1

[17] = system: HCC1500 (Breast Carcinoma); test: as above
Method in brief: as §1

[18] = system: NCI-H650 (Lung Adenocarcinoma); test: as above
Method in brief: as §1

[19] = system: DU-145 (Prostate Carcinoma); test: as above
Method in brief: as §1
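Throughout, for Bliss excess, mean over the matrix: after 72 h of two-drug dosing.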

| Structure (SMILES) | Bliss excess [1] | Bliss excess [2] | Bliss excess [3] | Bliss excess [4] | Bliss excess [5] | Bliss excess [6] | Bliss excess [7] | Bliss excess [8] | Bliss excess [9] | Bliss excess [10] | Bliss excess [11] | Bliss excess (EW-1 (Ewing's Sarcoma)) | Bliss excess [12] | combination Emax [13] | combination Emax [14] | combination Emax [15] | combination Emax [16] | combination Emax [17] | combination Emax [18] | combination Emax [19] |
| --- | --- | --- | --- | --- | --- | --- | --- | --- | --- | --- | --- | --- | --- | --- | --- | --- | --- | --- | --- | --- |
| Cc1cc2ncnn2cc1Nc1ncc2c(n1)n(C1CCOCC1)c(=O)n2C [AZD7648] + O=C(c1cc(Cc2n[nH]c(=O)c3ccccc23)ccc1F)N1CCN(C(=O)C2CC2)CC1 [Olaparib] (first compound max 10 µM, 7x7, partner max 10 µM) | -0.0808 | -0.0498 | -0.0124 | -0.0083 | 0.0086 | -0.0308 | -0.0369 | -0.066 | 0.0196 | -0.025 | -0.0247 | -0.0021 | -0.023 | 0.154 | 0.548 | 0.434 | 0.329 | 0.269 | 0.14 | 0.171 |
| Cc1c2c(nn1C)CSCc1cc(n(C)n1)CSc1cc(c3ccccc3c1)OCCCc1c(C(=O)O)n(C)c3c-2c(Cl)ccc13 [AZD5991] + Cn1cnc2c(F)c(Nc3ccc(Br)cc3Cl)c(C(=O)NOCCO)cc21 [Selumetinib] (first compound max 1 µM, 7x7, partner max 3 µM) | 0.003 | 0.0328 | 0.028 | 0.0068 | -0.0208 | -0.0039 | 0.0088 | -0.0225 | 0.0258 | -0.03 | 0.0222 | -0.0044 | 0.0417 | 0.464 | 0.874 | 0.474 | 0.476 | 0.41 | 0.432 | 0.221 |
| CN(CCO)CC[C@H](CSc1ccccc1)Nc1ccc(S(=O)(=O)NC(=O)c2ccc(N3CCC([C@@H](O)c4ccccc4-c4ccc(Cl)cc4)CC3)cc2)cc1S(=O)(=O)C(F)(F)F [AZD4320] + C[C@@H]1COCCN1C2=NC(=NC(=C2)C3(CC3)[S@](=N)(=O)C)C4=C5C=CNC5=NC=C4 [AZD6738] (first compound max 1 µM, 7x7, partner max 10 µM) | -0.0445 | -0.0241 | -0.0269 | 0.0038 | -0.0031 | -0.0287 | 0.0488 | -0.0884 | -0.0246 | -0.0167 | -0.0234 | 0.0574 | -0.0283 | 0.761 | 0.939 | 0.742 | 0.663 | 1 | 0.415 | 0.6 |
| C[C@@H](c1ccc2nccn2c1)n1nnc2ncc(-c3cnn(C)c3)nc21 [Savolitinib] + Cc1c2c(nn1C)CSCc1cc(n(C)n1)CSc1cc(c3ccccc3c1)OCCCc1c(C(=O)O)n(C)c3c-2c(Cl)ccc13 [AZD5991] (first compound max 1 µM, 7x7, partner max 1 µM) | 0.0218 | -0.0386 | -0.0513 | -0.0355 | 0.0151 | -0.0047 | 0.0066 | -0.0291 | 0.0789 | -0.0875 | -0.045 | -0.0001 | -0.0463 | 0.182 | 0.346 | 0.295 | 0.329 | 0.428 | 0.2 | 0.132 |
| CN(CCO)CC[C@H](CSc1ccccc1)Nc1ccc(S(=O)(=O)NC(=O)c2ccc(N3CCC([C@@H](O)c4ccccc4-c4ccc(Cl)cc4)CC3)cc2)cc1S(=O)(=O)C(F)(F)F [AZD4320] + C1CN(CCC1(C(=O)N[C@@H](CCO)C2=CC=C(C=C2)Cl)N)C3=NC=NC4=C3C=CN4 [Capivasertib] (first compound max 1 µM, 7x7, partner max 3 µM) | -0.0392 | -0.0881 | -0.0234 | -0.0464 | -0.0387 | -0.0591 | -0.0272 | -0.0558 | -0.0266 | -0.0476 | -0.0252 | -0.0009 | -0.0128 | 0.434 | 0.613 | 0.529 | 0.267 | 0.993 | 0.134 | 0.0863 |
| COc1cc2ncnc(Nc3ccc(F)c(Cl)c3)c2cc1OCCCN1CCOCC1 [Gefitinib] + CC(C)n1c(=O)n(C)c2cnc3cc(F)c(-c4ccc(OCCCN5CCCCC5)nc4)cc3c21 [AZD1390] (first compound max 10 µM, 7x7, partner max 0.3 µM) | -0.103 | -0.108 | -0.0508 | -0.0699 | -0.0634 | -0.0446 | -0.0395 | -0.0818 | -0.0725 | -0.0528 | -0.0791 | -0.064 | -0.0541 | 0.272 | 0.123 | 0.404 | 0.245 | 0.113 | 0.106 | 0.167 |
| C[C@@H](c1ccc2nccn2c1)n1nnc2ncc(-c3cnn(C)c3)nc21 [Savolitinib] + CC1(C)CCC(CN2CCN(c3ccc(C(=O)NS(=O)(=O)c4ccc(NCC5CCOCC5)c([N+](=O)[O-])c4)c(Oc4cnc5[nH]ccc5c4)c3)CC2)=C(c2ccc(Cl)cc2)C1 [Venetoclax] (first compound max 1 µM, 7x7, partner max 1 µM) | -0.049 | -0.0884 | -0.0559 | -0.0072 | -0.0549 | -0.0528 | -0.0127 | -0.0258 | 0.0298 | -0.0916 | -0.0822 | -0.0386 | -0.0866 | 0.165 | 0.695 | 0.104 | 0.273 | 0.629 | 0.0996 | 0.101 |
| Cc1nc(Nc2ncc(C(=O)Nc3c(C)cccc3Cl)s2)cc(N2CCN(CCO)CC2)n1 [Dasatinib] + CC(=O)Nc1cccc(-n2c(=O)n(C3CC3)c(=O)c3c(Nc4ccc(I)cc4F)n(C)c(=O)c(C)c32)c1 [Trametinib] (first compound max 2 µM, 7x7, partner max 1 µM) | -0.0793 | -0.0262 | 0.0119 | 0.0316 | -0.0435 | -0.0089 | -0.0342 | -0.0889 | -0.188 | -0.0494 | 0.121 | -0.0586 | 0.111 | 0.5 | 0.151 | 0.903 | 0.511 | 0.172 | 0.747 | 0.457 |
